Assay results from US8765669B2, “Glycosylated GLP-1 peptide” (Glytech, Inc., priority 2008, dated 2014).

biological target: T1, DPP-IV (dipeptidyl peptidase IV from porcine kidney) (Sus scrofa, UniProt P22411); experiment: Test of resistance to dipeptidyl peptidase IV (DPP-IV); format: in vitro ADME; details: half-life (t1/2) in DPP-IV solution at 37° C., GLP-1 of Comparative Example 1 defined as standard (=1)
T1 construct: dipeptidyl peptidase IV from porcine kidney, product of SIGMA; purchased SIGMA; host or cells: porcine kidney (tissue-derived enzyme)
Method: Each solution mixture was adjusted with 100 mM sodium phosphate buffer to 100 μl in total and allowed to react at 37° C. A 10 μaliquot of the reaction solution was mixed with 15 μl of 10% trifluoroacetic acid prepared in advance in another Eppendorf tube.

T1 sequence (P22411 whole entry): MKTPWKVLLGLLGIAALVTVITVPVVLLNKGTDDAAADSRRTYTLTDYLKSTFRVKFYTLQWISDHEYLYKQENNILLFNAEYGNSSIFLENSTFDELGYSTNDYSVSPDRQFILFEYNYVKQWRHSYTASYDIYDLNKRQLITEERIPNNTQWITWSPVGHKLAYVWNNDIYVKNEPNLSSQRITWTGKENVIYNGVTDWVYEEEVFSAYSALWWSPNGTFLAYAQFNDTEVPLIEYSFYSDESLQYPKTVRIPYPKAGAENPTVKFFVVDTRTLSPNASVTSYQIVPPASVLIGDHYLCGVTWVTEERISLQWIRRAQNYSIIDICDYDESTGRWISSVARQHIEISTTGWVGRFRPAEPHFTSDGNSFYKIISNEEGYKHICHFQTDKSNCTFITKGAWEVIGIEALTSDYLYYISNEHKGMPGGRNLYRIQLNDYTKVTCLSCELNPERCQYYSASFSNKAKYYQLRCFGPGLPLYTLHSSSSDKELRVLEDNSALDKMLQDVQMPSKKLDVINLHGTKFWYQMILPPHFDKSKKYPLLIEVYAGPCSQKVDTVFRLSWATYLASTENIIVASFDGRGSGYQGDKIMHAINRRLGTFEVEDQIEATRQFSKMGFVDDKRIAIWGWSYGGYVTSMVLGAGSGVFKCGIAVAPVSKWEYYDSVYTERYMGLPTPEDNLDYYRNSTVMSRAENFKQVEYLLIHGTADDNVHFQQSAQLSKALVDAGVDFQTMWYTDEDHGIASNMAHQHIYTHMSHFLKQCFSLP

Relative Resistance | SMILES
3.4 | CC[C@H](C)[C@H](NC(=O)[C@H](Cc1ccccc1)NC(=O)[C@H](CCC(=O)O)NC(=O)[C@H](CCCCN)NC(=O)[C@H](C)NC(=O)[C@H](C)NC(=O)[C@H](CCC(N)=O)NC(=O)CNC(=O)[C@H](CCC(=O)O)NC(=O)[C@H](CC(C)C)NC(=O)[C@H](Cc1ccc(O)cc1)NC(=O)[C@H](CO)NC(=O)[C@H](CO)NC(=O)[C@@H](NC(=O)[C@H](CC(=O)O)NC(=O)[C@H](CO)NC(=O)[C@@H](NC(=O)[C@H](Cc1ccccc1)NC(=O)[C@@H](NC(=O)CNC(=O)[C@H](CCC(=O)O)NC(=O)[C@H](C)NC(=O)[C@@H](N)Cc1c[nH]cn1)[C@@H](C)O)[C@@H](C)O)C(C)C)C(=O)N[C@@H](CSCC(=O)N[C@@H]1O[C@H](CO)[C@@H](O)[C@H](O[C@@H]2O[C@H](C(=O)O)[C@@H](O[C@@H]3O[C@H](CO)[C@@H](O)[C@H](O[C@@H]4O[C@H](C(=O)O)[C@@H](O[C@@H]5O[C@H](CO)[C@@H](O)[C@H](O[C@@H]6O[C@H](C(=O)O)[C@@H](O[C@@H]7O[C@H](CO)[C@@H](O)[C@H](O[C@@H]8O[C@H](C(=O)O)[C@@H](O)[C@H](O)[C@H]8O)[C@H]7NC(C)=O)[C@H](O)[C@H]6O)[C@H]5NC(C)=O)[C@H](O)[C@H]4O)[C@H]3NC(C)=O)[C@H](O)[C@H]2O)[C@H]1NC(C)=O)C(=O)N[C@@H](Cc1c[nH]c2ccccc12)C(=O)N[C@@H](CC(C)C)C(=O)N[C@H](C(=O)N[C@@H](CCCCN)C(=O)NCC(=O)N[C@@H](CCCNC(=N)N)C(=O)NCC(=O)O)C(C)C [Example 7, 30Cys-hyaluronic acid octasaccharide (HA-8) Added GLP-1 Peptide]
2.2 | CC[C@H](C)[C@H](NC(=O)[C@H](Cc1ccccc1)NC(=O)[C@H](CCC(=O)O)NC(=O)[C@H](CCCCN)NC(=O)[C@H](C)NC(=O)[C@H](C)NC(=O)[C@H](CCC(N)=O)NC(=O)CNC(=O)[C@H](CCC(=O)O)NC(=O)[C@H](CC(C)C)NC(=O)[C@H](Cc1ccc(O)cc1)NC(=O)[C@H](CO)NC(=O)[C@H](CO)NC(=O)[C@@H](NC(=O)[C@H](CC(=O)O)NC(=O)[C@H](CO)NC(=O)[C@@H](NC(=O)[C@H](Cc1ccccc1)NC(=O)[C@@H](NC(=O)CNC(=O)[C@H](CCC(=O)O)NC(=O)[C@H](C)NC(=O)[C@@H](N)Cc1c[nH]cn1)[C@@H](C)O)[C@@H](C)O)C(C)C)C(=O)N[C@@H](C)C(=O)N[C@@H](Cc1c[nH]c2ccccc12)C(=O)N[C@@H](CC(C)C)C(=O)N[C@H](C(=O)N[C@@H](CCCCN)C(=O)NCC(=O)N[C@@H](CSCC(=O)N[C@@H]1O[C@H](CO)[C@@H](O)[C@H](O[C@@H]2O[C@H](C(=O)O)[C@@H](O[C@@H]3O[C@H](CO)[C@@H](O)[C@H](O[C@@H]4O[C@H](C(=O)O)[C@@H](O)[C@H](O)[C@H]4O)[C@H]3NC(C)=O)[C@H](O)[C@H]2O)[C@H]1NC(C)=O)C(=O)NCC(=O)O)C(C)C [Example 8, 36Cys-hyaluronic acid tetrasaccharide (HA-4) Added GLP-1 Peptide]

The remaining lines, values behind:

SMILES | Relative Resistance
CC[C@H](C)[C@H](NC(=O)[C@H](Cc1ccccc1)NC(=O)[C@H](CCC(=O)O)NC(=O)[C@H](CCCCN)NC(=O)[C@H](C)NC(=O)[C@H](C)NC(=O)[C@H](CCC(N)=O)NC(=O)[C@H](CSCC(=O)N[C@@H]1O[C@H](CO)[C@@H](O[C@@H]2O[C@H](CO)[C@@H](O[C@@H]3O[C@H](CO[C@H]4O[C@H](CO)[C@@H](O)[C@H](O)[C@@H]4O[C@@H]4O[C@H](CO)[C@@H](O[C@@H]5O[C@H](CO[C@]6(C(=O)O)C[C@H](O)[C@@H](NC(C)=O)[C@H]([C@H](O)[C@H](O)CO)O6)[C@H](O)[C@H](O)[C@H]5O)[C@H](O)[C@H]4NC(C)=O)[C@@H](O)[C@H](O[C@H]4O[C@H](CO)[C@@H](O)[C@H](O)[C@@H]4O[C@@H]4O[C@H](CO)[C@@H](O[C@@H]5O[C@H](CO[C@]6(C(=O)O)C[C@H](O)[C@@H](NC(C)=O)[C@H]([C@H](O)[C@H](O)CO)O6)[C@H](O)[C@H](O)[C@H]5O)[C@H](O)[C@H]4NC(C)=O)[C@@H]3O)[C@H](O)[C@H]2NC(C)=O)[C@H](O)[C@H]1NC(C)=O)NC(=O)[C@H](CCC(=O)O)NC(=O)[C@H](CC(C)C)NC(=O)[C@H](Cc1ccc(O)cc1)NC(=O)[C@H](CO)NC(=O)[C@H](CO)NC(=O)[C@@H](NC(=O)[C@H](CC(=O)O)NC(=O)[C@H](CO)NC(=O)[C@@H](NC(=O)[C@H](Cc1ccccc1)NC(=O)[C@@H](NC(=O)CNC(=O)[C@H](CCC(=O)O)NC(=O)[C@H](C)NC(=O)[C@@H](N)Cc1c[nH]cn1)[C@@H](C)O)[C@@H](C)O)C(C)C)C(=O)N[C@@H](C)C(=O)N[C@@H](Cc1c[nH]c2ccccc12)C(=O)N[C@@H](CC(C)C)C(=O)N[C@H](C(=O)N[C@@H](CCCCN)C(=O)NCC(=O)N[C@@H](CSCC(=O)N[C@@H]1O[C@H](CO)[C@@H](O[C@@H]2O[C@H](CO)[C@@H](O[C@@H]3O[C@H](CO[C@H]4O[C@H](CO)[C@@H](O)[C@H](O)[C@@H]4O[C@@H]4O[C@H](CO)[C@@H](O[C@@H]5O[C@H](CO[C@]6(C(=O)O)C[C@H](O)[C@@H](NC(C)=O)[C@H]([C@H](O)[C@H](O)CO)O6)[C@H](O)[C@H](O)[C@H]5O)[C@H](O)[C@H]4NC(C)=O)[C@@H](O)[C@H](O[C@H]4O[C@H](CO)[C@@H](O)[C@H](O)[C@@H]4O[C@@H]4O[C@H](CO)[C@@H](O[C@@H]5O[C@H](CO[C@]6(C(=O)O)C[C@H](O)[C@@H](NC(C)=O)[C@H]([C@H](O)[C@H](O)CO)O6)[C@H](O)[C@H](O)[C@H]5O)[C@H](O)[C@H]4NC(C)=O)[C@@H]3O)[C@H](O)[C@H]2NC(C)=O)[C@H](O)[C@H]1NC(C)=O)C(=O)NCC(=O)O)C(C)C [Example 4, 22 and 36Cys-disialo oligosaccharide Chain Added GLP-1] | 22.5
CC[C@H](C)[C@H](NC(=O)[C@H](Cc1ccccc1)NC(=O)[C@H](CCC(=O)O)NC(=O)[C@H](CCCCN)NC(=O)[C@H](C)NC(=O)[C@H](C)NC(=O)[C@H](CCC(N)=O)NC(=O)CNC(=O)[C@H](CCC(=O)O)NC(=O)[C@H](CC(C)C)NC(=O)[C@H](Cc1ccc(O)cc1)NC(=O)[C@H](CO)NC(=O)[C@H](CO)NC(=O)[C@@H](NC(=O)[C@H](CC(=O)O)NC(=O)[C@H](CO)NC(=O)[C@@H](NC(=O)[C@H](Cc1ccccc1)NC(=O)[C@@H](NC(=O)CNC(=O)[C@H](CCC(=O)O)NC(=O)[C@H](C)NC(=O)[C@@H](N)Cc1c[nH]cn1)[C@@H](C)O)[C@@H](C)O)C(C)C)C(=O)N[C@@H](CSCC(=O)N[C@@H]1O[C@H](CO)[C@@H](O[C@@H]2O[C@H](CO)[C@@H](O[C@@H]3O[C@H](CO[C@H]4O[C@H](CO)[C@@H](O)[C@H](O)[C@@H]4O[C@@H]4O[C@H](CO)[C@@H](O[C@@H]5O[C@H](CO[C@]6(C(=O)O)C[C@H](O)[C@@H](NC(C)=O)[C@H]([C@H](O)[C@H](O)CO)O6)[C@H](O)[C@H](O)[C@H]5O)[C@H](O)[C@H]4NC(C)=O)[C@@H](O)[C@H](O[C@H]4O[C@H](CO)[C@@H](O)[C@H](O)[C@@H]4O[C@@H]4O[C@H](CO)[C@@H](O[C@@H]5O[C@H](CO[C@]6(C(=O)O)C[C@H](O)[C@@H](NC(C)=O)[C@H]([C@H](O)[C@H](O)CO)O6)[C@H](O)[C@H](O)[C@H]5O)[C@H](O)[C@H]4NC(C)=O)[C@@H]3O)[C@H](O)[C@H]2NC(C)=O)[C@H](O)[C@H]1NC(C)=O)C(=O)N[C@@H](Cc1c[nH]c2ccccc12)C(=O)N[C@@H](CC(C)C)C(=O)N[C@H](C(=O)N[C@@H](CCCCN)C(=O)NCC(=O)N[C@@H](CSCC(=O)N[C@@H]1O[C@H](CO)[C@@H](O[C@@H]2O[C@H](CO)[C@@H](O[C@@H]3O[C@H](CO[C@H]4O[C@H](CO)[C@@H](O)[C@H](O)[C@@H]4O[C@@H]4O[C@H](CO)[C@@H](O[C@@H]5O[C@H](CO[C@]6(C(=O)O)C[C@H](O)[C@@H](NC(C)=O)[C@H]([C@H](O)[C@H](O)CO)O6)[C@H](O)[C@H](O)[C@H]5O)[C@H](O)[C@H]4NC(C)=O)[C@@H](O)[C@H](O[C@H]4O[C@H](CO)[C@@H](O)[C@H](O)[C@@H]4O[C@@H]4O[C@H](CO)[C@@H](O[C@@H]5O[C@H](CO[C@]6(C(=O)O)C[C@H](O)[C@@H](NC(C)=O)[C@H]([C@H](O)[C@H](O)CO)O6)[C@H](O)[C@H](O)[C@H]5O)[C@H](O)[C@H]4NC(C)=O)[C@@H]3O)[C@H](O)[C@H]2NC(C)=O)[C@H](O)[C@H]1NC(C)=O)C(=O)NCC(=O)O)C(C)C [Example 5, 30,36Cys-disialo oligosaccharide Chain Added GLP-1 Peptide] | 7.5
CC[C@H](C)[C@H](NC(=O)[C@H](Cc1ccccc1)NC(=O)[C@H](CCC(=O)O)NC(=O)[C@H](CCCCN)NC(=O)[C@H](C)NC(=O)[C@H](C)NC(=O)[C@H](CCC(N)=O)NC(=O)CNC(=O)[C@H](CCC(=O)O)NC(=O)[C@H](CC(C)C)NC(=O)[C@H](Cc1ccc(O)cc1)NC(=O)[C@H](CO)NC(=O)[C@H](CO)NC(=O)[C@@H](NC(=O)[C@H](CC(=O)O)NC(=O)[C@H](CO)NC(=O)[C@@H](NC(=O)[C@H](Cc1ccccc1)NC(=O)[C@@H](NC(=O)CNC(=O)[C@H](CCC(=O)O)NC(=O)[C@H](C)NC(=O)[C@@H](N)Cc1c[nH]cn1)[C@@H](C)O)[C@@H](C)O)C(C)C)C(=O)N[C@@H](CSCC(=O)N[C@@H]1O[C@H](CO)[C@@H](O)[C@H](O[C@@H]2O[C@H](C(=O)O)[C@@H](O[C@@H]3O[C@H](CO)[C@@H](O)[C@H](O[C@@H]4O[C@H](C(=O)O)[C@@H](O)[C@H](O)[C@H]4O)[C@H]3NC(C)=O)[C@H](O)[C@H]2O)[C@H]1NC(C)=O)C(=O)N[C@@H](Cc1c[nH]c2ccccc12)C(=O)N[C@@H](CC(C)C)C(=O)N[C@H](C(=O)N[C@@H](CCCCN)C(=O)NCC(=O)N[C@@H](CCCNC(=N)N)C(=O)NCC(=O)O)C(C)C [Example 6, 30Cys-hyaluronic acid tetrasaccharide (HA-4) Added GLP-1 Peptide] | 2.1
